# Assay results reported in patent publication US8632788B2, “Parenteral formulation for epothilone analogs” (Bristol-Myers Squibb Company, priority 2001, dated 2014).
# Key:
# [1] = Physicochemical properties of the epothilone analogs relevant to compounding (solubility, stability in aqueous media, pH, light, wetting)
# Text: Any one or two of these characteristics might be compensated for in compounding a pharmaceutical formulation for intravenous administration, but the combination of all of them presents a formidable challenge to the pharmaceutical compounding chemist.
# [2] = Cytotoxic classification of the epothilone analogs
# [3] = Degradation of the drug during dissolution in tertiary butanol/water, lyophilization and secondary drying; format: physicochemical; conditions: dissolution at 5° C. in tertiary butanol/water, lyophilization at −16° C. 48 hours, drying at 15° C. under high vacuum 48 hours, light protected
# Procedure: [1S-[1R*,3R*(E),7R*,10S*,11R*,12R*,16S*]]-[…]-8,8,10,12,16-pentamethyl-3-[1-methyl-2-(2-methyl-4-thiazolyl)ethenyl]-4-aza-17-oxabicyclo[14.1.0]heptadecane-5,9-dione, 9.86 g, was wetted/partially dissolved with 600 mL of a 9:1 mixture of tertiary butanol and Water for Injection USP which had been pre-cooled to 5° C. Once the drug powder had become completely wetted, dissolution was completed by the addition of 600 mL of a 1:9 mixture of tertiary butanol and Water for Injection and 766 mL of a 1:1 mixture of tertiary butanol and Water for Injection which likewise had been pre-cooled to 5° C. thereby making the final solution a 1:1 mixture. The dissolution was carried out under protection from light.
# The solution formed above was promptly lyophilized in a Virtis INOTOP lyophilizer at −16° C. under light protectant conditions over a period of 48 hours. The resultant lyophilized product (lyophile) was then further dried at 15° C. under high vacuum for 48 hours. […] The lyophile was packaged under sterile conditions into 30 mL vials, each containing 10 mg of drug and standard excess to allow for vial/needle/syringe loss.
smiles,measurement,setting,value
"C/C(=C\c1csc(C)n1)C1C[C@@H]2O[C@]2(C)CCC[C@H](C)[C@H](O)[C@@H](C)C(=O)C(C)(C)[C@@H](O)CC(=O)N1 (relative stereo) [formula II, [1S-[1R*,3R*(E),7R*,10S*,11R*,12R*,16S*]]-7,11-Dihydroxy-8,8,10,12,16-pentamethyl-3-[1-methyl-2-(2-methyl-4-thiazolyl)ethenyl]-4-aza-7-oxabicyclo[14.1.0]heptadecane-5,9-dione]",light sensitivity,[1],light sensitive
same,wetting characteristics,[1],exceptionally poor
same,solubility in aqueous media,[1]; aqueous media,very low solubility
same,degradation in contact with aqueous media,[1]; in contact with aqueous media,rapidly degrade
same,sensitivity to low pH,[1]; in solution,sensitive to low pH
same,cytotoxic class,[2],Class D
same,degradation of the drug,[3],No detectable degradation
